Results taken from US20150086695A1, “SWEETENER COMPOSITION, SWEETENER PRODUCTS, AND METHODS OF SWEETENING” (Almendra Americas, LLC, priority 2013, published 2015).

Test system: trained expert panelists
Assay: Sensory panel scaling of taste attributes on 0-15 scales (formulation study ballot)
Assay type: in vivo, human
Settings: 0-15 scale; for Bitterness Intensity @ 2 Min (Bitter2) / Numbing/Tingling Sensation @ 2 Min (Numb/Ting2) / Sweetness Intensity @ 2 Min (Sweet2): at 2 minutes; for Bitterness Intensity @ 2 Min (Bitter2) / Numbing/Tingling Sensation @ 2 Min (Numb/Ting2) / Sweetness Intensity @ 2 Min (Sweet2) / Astringency Intensity (Astring) / Bitterness Intensity (IB) / Mouthfeel (Mfeel) / Numbing/Tingling Sensation (Numb/Ting) / Soapiness (Soap) / Sweetness Intensity Initial (Sweetness) / Sweetness Onset/Appearance Time (Onset): defined calibration rating, Sucrose Reference 10.0% sucrose, REB A Reference 500 PPM, both in 0.1% citric acid
Source text: Tongue numbing can also manifest itself as “tongue tingling”. These non-sugar-like characteristics appear inter-related in the sense that formulation as well as temperature changes affect the perception of several of them. Another taste characteristic of steviol glycosides, particularly those with relatively low levels of REB A, is soapiness, a characteristic that results from the surfactant portion of the molecule. To quantify all of these sensory effects by existing methods would require an expert sensory panel and at least 4 different sensory tests (i.e., C/R Function Determination, Flavor Profile Analysis, Temporal Profile Analysis and Adaptation Profile Analysis). However, to address a need for rapid screening of HP sweetener formulations, Prakash et al., described a scaling technique to quantify all of these sensory percepts in a single test (reference shown below under the table). An improvement of this methodology is described below.
Prior to the evaluation of test samples, all panelists must first calibrate themselves on Sucrose and Reference Samples (e.g., REB A) to ensure that they are able to appropriately scale taste attributes of interest. These Reference Samples are to be available in ample quantities for all experimental sessions. The Sucrose Reference is 10.0% sucrose acidified with 0.1% citric acid. For illustration purposes, an example of a Reference Sample can be a REB A Reference Sample that has 500 PPM REB A in the same system for general formula optimization studies.
Take a ca. 15 mL sample of the Sucrose Reference into the mouth swishing it around vigorously and note all attributes of the sensory experience. After ca. 10 sec, expectorate the sample and immediately rinse vigorously with ca. 15 mL of water, expectorating the rinse water. Over the next 2 minutes, while minimizing tongue movement in the mouth, pay attention to any rebound or intensification in perceived sweetness, bitterness, or numbing/tingling sensation. The intensity of the attribute perceived at 2 minutes is an estimate of its lingering tendency. Upon completion of calibration with the Sucrose Reference, calibration with the REB A Reference is carried out in the same way. The attribute ratings for the Sucrose and REB A References, all on 0-15 scales, are defined as follows: […]
After completion of reference sample calibrations, as well as in follow up of all sample tests, rinse the mouth vigorously with ca. 15 mL portions of the Sucrose Reference solution and two ca. 15 mL portions of water in effort to get the sensory system back to baseline. […]

| SMILES | Bitterness Intensity @ 2 Min (Bitter2) | Numbing/Tingling Sensation @ 2 Min (Numb/Ting2) | Sweetness Intensity @ 2 Min (Sweet2) | Astringency Intensity (Astring) | Bitterness Intensity (IB) | Mouthfeel (Mfeel) | Numbing/Tingling Sensation (Numb/Ting) | Soapiness (Soap) | Sweetness Intensity Initial (Sweetness) | Sweetness Onset/Appearance Time (Onset) | scores on all lingering attributes (Example 9, REBA100 500 mg/L in 0.1% citric acid, two panelists) |
| --- | --- | --- | --- | --- | --- | --- | --- | --- | --- | --- | --- |
| OC[C@H]1O[C@@](CO)(O[C@H]2O[C@H](CO)[C@@H](O)[C@H](O)[C@H]2O)[C@@H](O)[C@@H]1O [Sucrose, sucrose] | 0 | 0 | 0 | 0 | 0 | 10 | 0 | 0 | 10 | 0 | 0 |
| C=C1C[C@@]23CC[C@H]4[C@@](C)(CCC[C@@]4(C)C(=O)O[C@@H]4O[C@H](CO)[C@@H](O)[C@H](O)[C@H]4O)[C@@H]2CC[C@]1(O[C@@H]1O[C@H](CO)[C@@H](O)[C@H](O[C@@H]2O[C@H](CO)[C@@H](O)[C@H](O)[C@H]2O)[C@H]1O[C@@H]1O[C@H](CO)[C@@H](O)[C@H](O)[C@H]1O)C3 [REB A100, rebaudioside A] | 2 | 2 | 3 | 0 | 3 | 0 | 0 | 1 | 10 | 3 | – |
